Source: patent publication US6187783A, “Phenanthridinium derivatives” (Nippon Kayaku Kabushiki Kaisha, priority 1996, dated 2001)
Read-outs that look alike come from different tables or passages of the source.

Tests used:
[1] = system: Human uterus cancer-derived cells HeLa S3; assay: Growth prevention against cancer cells (72 h contact, Methylene Blue staining); type: cell-based; settings: HeLa S3, 72 hours contact, 37° C., read-out: 50% Inhibitory Concentration (IC50)
Method: The compounds of the present invention were examined on the antitumor activity, and the thus obtained results are shown below.
1. Growth prevention against cancer cells
Human uterus cancer-derived cells HeLa S3 were incubated at 37° C. for 24 hours in 5% CO2. A test compound was then brought into contact with the cells for 72 hours. Then, the cells were stained with 0.05% Methylene Blue. The pigment was extracted from the stained cells. The growth inhibition of the cells were determined based on absorbance at 660 nm to calculate 50% growth inhibitory concentration (IC50).

[2] = Chemical reduction with sodium cyanoborohydride; type: physicochemical
Method: (§1) In addition, when an in vitro metabolic test using liver homogenate (S9) prepared from human liver was performed with reference to the method described in Arch. […] This product coincided with the reduced product formed by the chemical reduction described above.
(§2) 2,3-(Methylenedioxy)-7-hydroxy-8-methoxy-5,6-propano-benzo[c]phenanthridinium chloride, which is one of the compounds of the present invention, was treated with sodium cyanoborohydride in an aqueous solution at room temperature.
The compound of the present invention (0.1 mg/mL aqueous solution, 0.1 mL) was diluted with methanol (1.0 mL). An aqueous solution of sodium cyanoborohydride (4 mg/mL, 0.02 mL) was added to the solution. The mixture was allowed to stand at room temperature. The reaction was terminated by adding 1% aqueous phosphoric acid (1 mL) thereto. The residual amount of the compound was determined by high performance liquid chromatography. As a control, 2,3-(methylenedioxy)-5-methyl-7-hydroxy-8-methoxy-benzo[c]phenanthridiniumhydrogensulfate was similarly reacted.

[3] = In vitro metabolic test using liver homogenate (S9); type: in vitro ADME, human
Method: as §1, §2

[4] = system: Mouse leukemia cells P388; assay: Antitumor effect on cancer cells in vivo (P388 leukemia, survival); set-up: species or system mouse (female CDF1 mice); settings: i.v. single administration; for Survived Days: P388 in female CDF1 mice; for Effect (T/C %): ratio of survival days to median of control group
Method: 2. Antitumor effect on cancer cells in vivo
Mouse leukemia cells P388 was intravenously injected to female CDF1 mice of 6 weeks old in a dose of 10^5 cells/mouse. A 5% glucose aqueous solution of 2,3-(methylenedioxy)-7-hydroxy-8-methoxy-5,6-propano-benzo[c]phenanthridinium chloride (Compound No. A-4 of the present invention, (X^- =Cl^-)) was intravenously injected by single administration on the day following the tumor transportation. The antitumor effect was evaluated by comparing the ratio (T/C %) of survival days to the median of survival days in the control group (5 mice).

female CDF1 mice = assay: Acute toxicity by intravenous injection; type: in vivo, mouse (female CDF1 mice); settings: female CDF1 mice of 6 weeks old
Method: The acute toxicity was assessed by intravenous injection of 2,3-(methylenedioxy)-7-hydroxy-8-methoxy-5,6-propano-benzo[c]phenanthridinium chloride (Compound No. A-4 of the present invention, (X^- =Cl^-)) to female CDF1 mice of 6 weeks old.

[5] = aqueous sodium cyanoborohydride

SMILES	IC50 [1] [nM]	Amount of Compound remained after Reduction [2, 5]	Disappearance on treatment with sodium cyanoborohydride ([2]; aqueous solution, room temperature)	Amount of Compound remained after Reduction ([2]; sodium cyanoborohydride, room temperature, terminated with phosphoric acid, HPLC)	Production of metabolite ([3]; in vitro, liver homogenate (S9) prepared from human liver)	Survived Days ([4]; 25 mg/kg/day) [days]	Effect (T/C %) ([4]; 25 mg/kg/day) [%]	Survived Days ([4]; 50 mg/kg/day) [days]	Effect (T/C %) ([4]; 50 mg/kg/day) [%]	Survived Days ([4]; 75 mg/kg/day) [days]	Effect (T/C %) ([4]; 75 mg/kg/day) [%]	Survived Days ([4]; 100 mg/kg/day) [days]	Effect (T/C %) ([4]; 100 mg/kg/day) [%]	Acute toxicity (survival) (female CDF1 mice)	Production of metabolite [3]
COc1ccc2c(c1O)c1[n+](c3c4cc5c(cc4ccc23)OCO5)CCCC1 [Compound No. A-7, 2,3-(methylenedioxy)-7-hydroxy-8-methoxy-5,6-butano-benzo[c]phenanthridinium chloride]	5600	100	–	–	–	–	–	–	–	–	–	–	–	–	–
COc1ccc2c(c[n+](C)c3c4cc5c(cc4ccc23)OCO5)c1O [Control, 2,3-(methylenedioxy)-5-methyl-7-hydroxy-8-methoxy-benzo[c]phenanthridiniumhydrogensulfate, reference compound]	–	–	the phenanthridinium is lost in a few minutes	0	production of the metabolite was observed	–	–	–	–	–	–	–	–	–	–
COc1ccc2c(c1O)c1[n+](c3c4cc5c(cc4ccc23)OCO5)CCC1 [Compound No. A-4, 2,3-(methylenedioxy)-7-hydroxy-8-methoxy-5,6-propano-benzo[c]phenanthridinium chloride]	170	50	–	–	–	14	167	21	250	> 30	> 357	> 30	> 357	survived even in a dose of 100 mg/kg, without showing any death	no metabolite was produced
